Patent publication US20230310474A1, “CORONAVIRUS TREATMENT COMPOSITION AND METHOD” (Cleveland State University, priority 2022, published 2023)

Experiments:
HCoV-OC43 [1] = assay: microbe, parasite or virus in culture; type: cell-based
SARS-CoV-2 [2] = assay: SARS-CoV-2 high-throughput screen (HTS) cytopathic effect assay in Vero 76 cells; type: cell-based; details: MOI 0.1, 48 hours
Neu1 = molecular target: T1, Neu1 (Homo sapiens, UniProt Q99519); assay: Neuraminidase (sialidase) activity assay with 4-MU-NANA in HEK293T cells transfected with Neu1; type: cell-based
T1 construct: expressed in transfected cells; host or cells: HEK293T

human sialidases = details: cited from earlier work
SARS-CoV-2 [3] = details: several clinical trials; cited from earlier work
THP-1 cells [4] = assay: MTS cell viability assay in THP-1 cells; type: cell-based, human; details: all tested concentrations
Method: FIGS. 3A-J illustrate that Neu5Ac2en-OAcOMe exerts anti-viral effects in human cell models. […] (upper) or 37° C. (lower). Intracellular viral RNA was analyzed by RT-qPCR. FIGS. 3B-D show HCoV-OC43 (MOI = 2) infected THP-1 cells were treated with a gradient concentration of Neu5Ac2en-OAcOMe for 72 hours. Intracellular viral RNA (FIG. 3B, upper), extracellular progeny virus yields (FIG. 3B, lower and FIG. 3C) and intracellular nucleocapsid (FIG. 3D) were analyzed by RT-qPCR, TCID50 assay and immunoblot, respectively. The inhibitory and cytotoxic curves (3C) were obtained using the data from the lower panel in FIG. 3B and cell viability measured by MTS assay. CellTiter 96® AQueous One Solution Cell Proliferation Assay (MTS) (Promega, G3582) was performed as instructed in the kit manual. […] Sialylation was detected with biotin-MAA and biotin-SNA lectins. […] Nucleocapsid in the cell lysates was measured by western blot. […] The levels of intracellular nucleocapsid were analyzed by immunofluorescence (48 hours post-infection). […] ND, not detected. […]
(§1) To determine whether Neu5Ac2en-OAcOMe affects post-entry steps of the viral life cycle, THP-1 cells were infected with HCoV-OC43 for two hours and then treated the cells with Neu5Ac2en-OAcOMe. Intracellular viral RNA and viral titers were quantified in the cell culture supernatants 72 hours post-infection.

SARS-CoV-2 [5] = type: in vivo, K18-hACE2 transgenic mice; details: K18-hACE2 mice, IP on days 0-4, 1 x 10^4 PFU
HCoV-OC43 [6] = assay: HCoV-OC43 binding and entry assay in pretreated THP-1 cells (4° C. or 37° C.); type: cell-based; details: THP-1 cells pretreated two hours; 4° C. one hour or 37° C. two hours post-infection
Method: Whether Neu5Ac2en-OAcOMe acts on the virus binding and entry steps of the viral life cycle was evaluated. THP-1 cells were treated with Neu5Ac2en-OAcOMe for two hours and then infected the cells with HCoV-OC43 at 4° C. or 37° C. Cells incubated at 4° C. were collected one hour post-infection and cells incubated at 37° C. were collected two hours post-infection. Intracellular viral RNA was quantified by RT-qPCR.

HCoV-OC43 [7] = assay: HCoV-OC43 replication in epithelial cell lines (HEK293T, HeLa, BSC-1); type: cell-based
Method: Cells were fixed with 4% paraformaldehyde in phosphate buffered saline (PBS) at room temperature for 15 min and then permeabilized with 1% Triton X-100 in PBS at room temperature for 15 min. Immunofluorescence staining was performed. Images were acquired with an EVOS FL Auto Imaging System (Thermo Fisher Scientific).
Next, it was tested whether the observed efficacy of Neu5Ac2en-OAcOMe was not restricted to THP-1 cells. The efficacy of Neu5Ac2en-OAcOMe was evaluated in three epithelial cell lines (HEK293T cells, HeLa cells and BSC-1 cells). […] Therefore, cytosolic sialidase inhibitors represent a potential treatment for coronavirus infections.

THP-1 cells [8] = assay: Cytokine production in THP-1 cells (human cytokine bead array); type: cell-based
Method: Mouse blood samples were obtained at indicated time points, and cytokines in the serum were determined using a mouse cytokine bead array designed for inflammatory cytokines (552364, BD Biosciences, San Jose, CA). Human cytokines in cell culture derived supernatants were determined using a human cytokine bead array designed for inflammatory cytokines (551811, BD Biosciences).
as §1

HCoV-OC43 [9] = test system: HCoV-OC43
[10] = Intracellular conversion of membrane-permeable inhibitor; details: upon entering into the cells
[11] = HEK293T cells with Neu1 expression vector, 30 min at room temperature
[12] = HEK293T cells, HeLa cells and BSC-1 cells

For `O=C(CO)N[C@H]1[C@H]([C@H](O)[C@H](O)CO)OC(C(=O)O)=C[C@@H]1O` [Neu5Gc2en, reference compound], which “antiviral activity against HCoV-OC43 (viral transcripts and viral titer)” value (from here on “antiviral activity against HCoV-OC43”) (HCoV-OC43 [1]) is on record?
The value was “did not inhibit HCoV-OC43 replication”.

And the “protection activity (cell viability post SARS-CoV-2 infection)” value (“protection activity” below) (SARS-CoV-2 [2])?
Its value is “could not protect”.

What about the “cell surface sialidase activity” value (Neu1; [11]) of the same compound?
The value was “targets sialidase on cell surface”.

Which “antiviral activity against HCoV-OC43” value (HCoV-OC43 [1]) does the source give for `CCOC(=O)C1=C[C@@H](OC(CC)CC)[C@H](NC(C)=O)[C@@H](N)C1` [oseltamivir] here?
Its value is “did not show inhibitory activity”.

And the “protection activity” value (SARS-CoV-2 [2])?
Its value is “did not show inhibitory activity”.

What about the “sialidase activity in the cytoplasm” value (Neu1) of the same compound?
Its value is “only slightly decreased”.

What about the “effect on human sialidases” value (human sialidases) of the same compound?
Its value is “almost no effect”.

What about the “efficacy in treating SARS-CoV-2 infection” value (SARS-CoV-2 [3]) of the same compound?
Its value is “no positive outcomes were observed”.

With `COC(=O)C1=CC(OC(C)=O)[C@@H](NC(C)=O)C([C@H](OC(C)=O)[C@@H](COC(C)=O)OC(C)=O)O1` (stereo partly drawn) [Neu5Ac2en-OAcOMe] as the compound, how does the N protein levels (HCoV-OC43 [1]) read?
The N protein levels was “significantly decreased”.

And the “antiviral activity against HCoV-OC43” value (HCoV-OC43 [1])?
The value was “showed the highest antiviral activities”.

And the “sialylation of HCoV-OC43 N protein” value (HCoV-OC43 [1])?
The value was “increased sialylation”.

And the “viral replication at the level of viral transcripts and viral titers” value (HCoV-OC43 [1])?
Its value is “significantly decreased viral replication”.

And the IC50 (HCoV-OC43 [1]; Betacoronavirus 1, OC43, THP-1, read-out: IC50 of viral replication (viral titers in cell culture supernatants))?
The IC50 was 13.7 µM.

What about the “protection activity” value (SARS-CoV-2 [2]) of the same compound?
The value was “showed the highest protection activities”.

And the “toxicity in MTS assay” value (THP-1 cells [4])?
Its value is “non-toxic at all tested concentrations”.

What about the “cell surface sialidase activity” value (Neu1; [11]) of the same compound?
The value was “did not affect”.

And the “total sialidase activity (total cell lysate)” value (Neu1; [11])?
Its value is “significantly decreased”.

What about the SARS-CoV-2-induced mortality (SARS-CoV-2 [5]) of the same compound?
Its SARS-CoV-2-induced mortality is “significant protection”.

What about the body weight loss (SARS-CoV-2 [5]) of the same compound?
Its body weight loss is “significant protection”.

And the “virus binding and entry steps (intracellular viral RNA)” value (HCoV-OC43 [6])?
The value was “did not affect virus binding and entry steps”.

What about the “viral replication by immunofluorescence staining for HCoV-OC43-N protein” value (HCoV-OC43 [7]; BSC-1 cells, MOI 0.1, 48 hours post-infection) of the same compound?
The value was “effectively suppressed viral replication”.

And the “N protein levels in epithelial cell lines” value (HCoV-OC43 [7]; [12])?
The value was “significantly decreased”.

And the “viral replication in epithelial cell lines” value (HCoV-OC43 [7]; [12])?
The value was “inhibited viral replication in all three cell lines”.

And the cytokine production (THP-1 cells [8])?
Its cytokine production is “did not induce cytokine production”.

And the body weight (HCoV-OC43 [9]; after HCoV-OC43 infection, 20 mg/kg IP)?
The body weight was “significantly lower in vehicle-treated mice than in Neu5Ac2en-OAcOMe-treated mice”.

What about the “brain and lung tissue damage (H&E staining)” value (HCoV-OC43 [9]; day 5 post-infection) of the same compound?
The value was “improved”.

What about the “serum IL-6 level” value (HCoV-OC43 [9]; day 5 post-infection) of the same compound?
The value was “substantial decrease”.

What about the “serum TNF-α level” value (HCoV-OC43 [9]; day 5 post-infection) of the same compound?
Its value is “substantial decrease”.

What about the “HCoV-OC43 viral replication in the lungs, blood and brain” value (HCoV-OC43 [9]; day 5 post-infection, 20 mg/kg IP) of the same compound?
The value was “suppression of HCoV-OC43 viral replication”.

And the “toxic signs and symptoms” value (HCoV-OC43 [9]; in vivo, all treatment period)?
The value was “No toxic signs and symptoms were observed”.

And the survival (HCoV-OC43 [9]; seven-day-old C57BL/6 pups, 20 mg/kg IP, 10 days observation)?
Its survival is 50%.

And the intracellular conversion [10]?
The intracellular conversion was “readily converted to the corresponding Neu5Ac2en intracellularly”.

For `CC1(C)Cc2c(sc(NC(=S)NC(=O)c3ccccc3)c2C(=O)O)CO1` [CID-1067700, reference compound], which HCoV-OC43 release (HCoV-OC43 [1]) is on record?
The HCoV-OC43 release was “moderately inhibited”.

Which “antiviral activity against HCoV-OC43” value (HCoV-OC43 [1]) does the source give for `CC(=O)N[C@H]1[C@H]([C@H](O)[C@H](O)CO)OC(C(=O)O)=C[C@@H]1N=C(N)N` [zanamivir] here?
Its value is “did not show inhibitory activity”.

What about the “protection activity” value (SARS-CoV-2 [2]) of the same compound?
Its value is “did not show inhibitory activity”.

What about the “effect on human sialidases” value (human sialidases) of the same compound?
The value was “almost no effect”.
